According to ChEMBL document CHEMBL6109129, “Discovery of Conformationally Constrained Dihydro Benzo-Indole Derivatives as Metallo-β-Lactamase Inhibitors to Tackle Multidrug-Resistant Bacterial Infections” (J Med Chem, 2025):
In brackets after ≈: the same amount, converted by molar mass. Activity calls are given as the source filed them. No cut-off for these calls is given here.

How the values were obtained:
[1] = Inhibition of IMP-1 (unknown origin) using FC5 as substrate preincubated for 10 mins followed by substrate addition and measured immediately by fluorescence based analysis; set-up: species or system Bacteria
[2] = molecular target: Metallo-beta-lactamase type 2 (Bacteria, UniProt C7C422); experiment: Inhibition of N-terminal truncated NDM1 (1 to 49N residues) (unknown origin) extracted from Escherichia coli BL21(DE3) cells using FC5 as substrate preincubated for 10 mins followed by substrate addition and measured immediately by fluorescence based analysis
[3] = Inhibition of VIM-1 (unknown origin) using FC5 as substrate preincubated for 10 mins followed by substrate addition and measured immediately by fluorescence based analysis; set-up: species or system Bacteria
Klebsiella pneumoniae [4] = experiment: Antibacterial activity against carbapenem-resistant Klebsiella pneumoniae 538961 assessed as reduction in microbial growth measured after 16 to 18 hrs by microbial dilution method; format: functional; conditions: time 16-18 hrs
Escherichia coli [5] = experiment: microbe, parasite or virus in culture; conditions: 541588
Description: Antibacterial activity against carbapenem-resistant Escherichia coli 541588 assessed as reduction in microbial growth measured after 16 to 18 hrs by microbial dilution method

Escherichia coli [6] = experiment: microbe, parasite or virus in culture; conditions: 565988
Description: Antibacterial activity against carbapenem-resistant Escherichia coli 565988 assessed as reduction in microbial growth measured after 16 to 18 hrs by microbial dilution method

Enterobacter cloacae = experiment: Antibacterial activity against carbapenem-resistant Enterobacter cloacae BAA-2468 assessed as reduction in microbial growth measured after 16 to 18 hrs by microbial dilution method; format: functional; conditions: time 16-18 hrs
Klebsiella pneumoniae [7] = experiment: Antibacterial activity against carbapenem-resistant Klebsiella pneumoniae 571278 assessed as reduction in microbial growth measured after 16 to 18 hrs by microbial dilution method; format: functional; conditions: time 16-18 hrs
Klebsiella pneumoniae [8] = experiment: Antibacterial activity against carbapenem-resistant Klebsiella pneumoniae 565345 assessed as reduction in microbial growth measured after 16 to 18 hrs by microbial dilution method; format: functional; conditions: time 16-18 hrs
Klebsiella pneumoniae [9] = experiment: Anti-infective activity against carbapenem-resistant Klebsiella pneumoniae ATCC BAA 2146 expressing NDM-1 infected in neutropenic female BALB/c mouse deep thigh infection model assessed as reduction in bacterial count at 20 mg/kg, sc pre-infected with bacteria for 2 hrs followed by compound addition and measured after 26 hrs; format: functional
[10] = system: Klebsiella pneumoniae subsp. pneumoniae; experiment: Antibacterial activity against carbapenem-resistant Klebsiella pneumoniae subsp. pneumoniae BAA-2470 assessed as reduction in microbial growth measured after 16 to 18 hrs by microbial dilution method; format: functional; conditions: time 16-18 hrs
Klebsiella pneumoniae [11] = experiment: Antibacterial activity against carbapenem-resistant Klebsiella pneumoniae 552439 assessed as reduction in microbial growth measured after 16 to 18 hrs by microbial dilution method; format: functional; conditions: time 16-18 hrs
Escherichia coli [12] = experiment: microbe, parasite or virus in culture; conditions: 567975
Description: Antibacterial activity against carbapenem-resistant Escherichia coli 567975 assessed as reduction in microbial growth measured after 16 to 18 hrs by microbial dilution method

Klebsiella pneumoniae [13] = experiment: Antibacterial activity against carbapenem-resistant Klebsiella pneumoniae BAA-2473 assessed as reduction in microbial growth measured after 16 to 18 hrs by microbial dilution method; format: functional; conditions: time 16-18 hrs
Escherichia coli [14] = experiment: Antibacterial activity against carbapenem-resistant Escherichia coli BAA-2471 assessed as reduction in microbial growth measured after 16 to 18 hrs by microbial dilution method; format: functional; conditions: time 16-18 hrs
Escherichia coli [15] = experiment: Antibacterial activity against carbapenem-resistant Escherichia coli 571307 assessed as reduction in microbial growth measured after 16 to 18 hrs by microbial dilution method; format: functional; conditions: time 16-18 hrs
Escherichia coli [16] = experiment: Antibacterial activity against carbapenem-resistant Escherichia coli BAA-2469 assessed as reduction in microbial growth measured after 16 to 18 hrs by microbial dilution method; format: functional; conditions: time 16-18 hrs
[17] = system: Klebsiella pneumoniae subsp. pneumoniae; experiment: Antibacterial activity against carbapenem-resistant Klebsiella pneumoniae subsp. pneumoniae BAA-2472 assessed as reduction in microbial growth measured after 16 to 18 hrs by microbial dilution method; format: functional; conditions: time 16-18 hrs
[18] = molecular target: Metallo-beta-lactamase type 2 (Bacteria) (UniProt C7C422); experiment: Induction of thermal stabilization of NDM-1 (unknown origin) assessed as melting temperature at 6.25 uM by differential scanning fluorimetry analysis
[19] = molecular target: Metallo-beta-lactamase type 2 (Bacteria) (UniProt C7C422); experiment: Induction of thermal stabilization of NDM-1 (unknown origin) assessed as melting temperature at 25 uM by differential scanning fluorimetry analysis
Klebsiella pneumoniae [20] = experiment: Synergistic antibacterial activity against Klebsiella pneumoniae ATCC BAA 2146 expressing NDM-1 measured after 16 to 18 hrs in presence of meropenem by microbial dilution method; format: functional, organism-based; conditions: time 16-18 hrs
[21] = molecular target: Metallo-beta-lactamase type 2 (Bacteria) (UniProt C7C422); experiment: Induction of thermal stabilization of NDM-1 (unknown origin) assessed as melting temperature at 3.12 uM by differential scanning fluorimetry analysis
[22] = molecular target: Metallo-beta-lactamase type 2 (Bacteria) (UniProt C7C422); experiment: Induction of thermal stabilization of NDM-1 (unknown origin) assessed as melting temperature at 50 uM by differential scanning fluorimetry analysis
[23] = molecular target: Metallo-beta-lactamase type 2 (Bacteria) (UniProt C7C422); experiment: Induction of thermal stabilization of NDM-1 (unknown origin) assessed as melting temperature at 12.5 uM by differential scanning fluorimetry analysis
[24] = molecular target: Metallo-beta-lactamase type 2 (Bacteria) (UniProt C7C422); experiment: Induction of thermal stabilization of NDM-1 (unknown origin) assessed as increase in melting temperature by differential scanning fluorimetry analysis; conditions: dose 3.12-50 µM
Klebsiella pneumoniae [25] = experiment: Synergistic antibacterial activity against Klebsiella pneumoniae ATCC BAA 2146 expressing NDM-1 measured after 16 to 18 hrs in presence of imipenem by microbial dilution method; format: functional, organism-based; conditions: time 16-18 hrs

Sequence of Metallo-beta-lactamase type 2 (Bacteria) (C7C422 whole entry): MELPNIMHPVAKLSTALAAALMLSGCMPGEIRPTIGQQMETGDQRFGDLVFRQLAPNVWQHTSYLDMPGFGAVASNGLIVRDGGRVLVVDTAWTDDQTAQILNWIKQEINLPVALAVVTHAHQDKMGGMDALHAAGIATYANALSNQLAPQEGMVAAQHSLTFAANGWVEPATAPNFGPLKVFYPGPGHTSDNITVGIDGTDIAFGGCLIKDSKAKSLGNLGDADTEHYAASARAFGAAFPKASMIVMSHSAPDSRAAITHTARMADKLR
Sequence of Metallo-beta-lactamase type 2 (C7C422 whole entry, the tested form may be a part): as the sequence (C7C422 whole entry) above

Structure (SMILES) | IC50 [1] | IC50 [2] | IC50 [3] | further results
COc1cc(F)ccc1-c1c(C(=O)O)[nH]c2c1CCc1ccccc1-2 | 1.7 µM | 0.0236 µM | 0.58 µM | 
COc1ccccc1-c1c(C(=O)O)[nH]c2c1CCc1ccccc1-2 | 3 µM | 0.188 µM | 1 µM | 
O=C(O)c1[nH]c2c(c1-c1ccccc1)CCc1ccccc1-2 | 8.5 µM | 0.111 µM | 3.7 µM | 
Cc1cc(Cl)cc(-c2c(C(=O)O)[nH]c3c2CCc2ccccc2-3)c1 | 0.32 µM |  | 0.557 µM | 
O=C(O)c1[nH]c2c(c1-c1cccc(Cl)c1Cl)CCc1ccccc1-2 | 22 µM | 0.015 µM |  | 
O=C(O)c1[nH]c2c(c1-c1cc(F)cc(F)c1)CCc1ccccc1-2 | 5.6 µM | 0.047 µM | 0.581 µM | 
C[C@@H](O)[C@H]1C(=O)N2C(C(=O)O)=C(SCCNC=N)C[C@H]12 [IMIPENEM ANHYDROUS] |  |  |  | MIC (Klebsiella pneumoniae [4]): 64 mg/L; MIC (Escherichia coli [5]): 8 mg/L (≈ 26.7 µM); MIC (Escherichia coli [6]): 8 mg/L (≈ 26.7 µM); MIC (Enterobacter cloacae): > 64 mg/L; MIC (Klebsiella pneumoniae [7]): 16 mg/L; MIC (Klebsiella pneumoniae [8]): 32 mg/L; Activity (Klebsiella pneumoniae [9]): ~1.15 log10CFU/ml; MIC [10]: 16 mg/L; MIC (Klebsiella pneumoniae [11]): 32 mg/L; MIC (Escherichia coli [12]): 16 mg/L (≈ 53.4 µM); MIC (Klebsiella pneumoniae [13]): > 64 mg/L; MIC (Escherichia coli [14]): 64 mg/L; MIC (Escherichia coli [15]): 32 mg/L; MIC (Escherichia coli [16]): 64 mg/L; MIC [17]: > 64 mg/L
O=C(O)c1[nH]c2c(c1-c1cc(Cl)c(Cl)c(Cl)c1)CCc1ccccc1-2 | 1.2 µM |  | 2.2 µM | 
O=C(O)c1[nH]c2c(c1-c1ccc(F)c(F)c1)CCc1ccccc1-2 | 6.4 µM | 0.0029 µM | 1.1 µM | 
O=C(O)c1[nH]c2c(c1-c1cc(F)cc(Cl)c1)CCc1ccccc1-2 | 0.149 µM | 0.0019 µM | 0.048 µM | ΔTm [18]: 13 °C; Tm [19]: 16 °C; Activity (Klebsiella pneumoniae [20]): Active; Tm [21]: 9 °C; Tm [22]: 17 °C; Tm [23]: 15 °C; Activity [24]: Active; Activity (Klebsiella pneumoniae [25]): Active
CC(C)(C)c1ccc(-c2c(C(=O)O)[nH]c3c2CCc2ccccc2-3)cc1 | 8.5 µM | 0.015 µM | 0.797 µM | 
O=C(O)c1[nH]c2c(c1-c1ccc(Cl)cc1Cl)CCc1ccccc1-2 | 9.8 µM | 0.002 µM | 0.427 µM | 
COc1cc(OC)cc(-c2c(C(=O)O)[nH]c3c2CCc2ccccc2-3)c1 | 0.914 µM | 0.005 µM | 0.308 µM | 
O=C(O)c1[nH]c2c(c1-c1cccc(Cl)c1)CCc1ccccc1-2 | 0.35 µM | 0.0025 µM | 0.468 µM | 
O=C(O)c1[nH]c2c(c1-c1ccncc1)CCc1ccccc1-2 | 14 µM | 0.071 µM | 2.6 µM | 
C[C@@H](O)[C@H]1C(=O)N2C(C(=O)O)=C(S[C@@H]3CN[C@H](C(=O)N(C)C)C3)[C@H](C)[C@H]12 [MEROPENEM] |  |  |  | MIC (Klebsiella pneumoniae [4]): > 64 mg/L; MIC (Escherichia coli [5]): 64 mg/L (≈ 167 µM); MIC (Escherichia coli [6]): 64 mg/L (≈ 167 µM); MIC (Enterobacter cloacae): > 64 mg/L; MIC (Klebsiella pneumoniae [7]): 64 mg/L; MIC (Klebsiella pneumoniae [8]): 64 mg/L; MIC [10]: 32 mg/L; MIC (Klebsiella pneumoniae [11]): > 64 mg/L; MIC (Escherichia coli [12]): 64 mg/L (≈ 167 µM); MIC (Klebsiella pneumoniae [13]): > 64 mg/L; MIC (Escherichia coli [14]): > 64 mg/L; MIC (Escherichia coli [15]): 64 mg/L; MIC (Escherichia coli [16]): 64 mg/L; MIC [17]: > 64 mg/L
O=C(O)c1[nH]c2c(c1-c1cncc(Cl)c1)CCc1ccccc1-2 | 1.5 µM | 0.0023 µM | 0.197 µM | 

Structure (SMILES) | IC50 [1] | IC50 [2] | IC50 [3] | further results
O=C(O)c1[nH]c2c(c1-c1cccc(F)c1F)CCc1ccccc1-2 | 2.4 µM | 0.268 µM | 1.9 µM | 
O=C(O)c1[nH]c2c(c1-c1cc(Cl)cc(Cl)c1)CCc1ccccc1-2 | 0.428 µM | 0.008 µM | 0.034 µM | ΔTm [18]: 1 °C; Tm [19]: 11 °C; Activity (Klebsiella pneumoniae [20]): Active; Tm [22]: 14 °C; Tm [23]: 8 °C; Activity [24]: Active; Activity (Klebsiella pneumoniae [25]): Active
Cc1ccc(-c2c(C(=O)O)[nH]c3c2CCc2ccccc2-3)c(F)c1 | 4.6 µM | 0.0077 µM | 1.5 µM | 
COc1cc(Cl)cc(-c2c(C(=O)O)[nH]c3c2CCc2ccccc2-3)c1 | 0.303 µM |  | 0.438 µM | 
Cc1cc(C(=O)O)[nH]c1-c1ccccc1 | 44 µM | 10.6 µM | 96 µM | 
COc1ccc(-c2c(C(=O)O)[nH]c3c2CCc2ccccc2-3)cc1 |  | 0.905 µM | 34 µM | 
O=C(O)c1[nH]c2c(c1-c1ccccc1Cl)CCc1ccccc1-2 | 0.99 µM | 0.0031 µM | 0.217 µM | 
O=C(O)c1[nH]c2c(c1-c1ccccc1F)CCc1ccccc1-2 | 2.3 µM | 0.058 µM | 0.613 µM | 
Cc1cc(C)cc(-c2c(C(=O)O)[nH]c3c2CCc2ccccc2-3)c1 | 1.2 µM | 0.0047 µM | 0.33 µM | 
COc1ccc(F)cc1-c1c(C(=O)O)[nH]c2c1CCc1ccccc1-2 | 0.38 µM | 0.0075 µM | 0.268 µM | 
O=C(O)c1[nH]c2c(c1-c1cccc(F)c1)CCc1ccccc1-2 | 3 µM | 0.0081 µM | 0.408 µM | 
COc1cc(F)cc(-c2c(C(=O)O)[nH]c3c2CCc2ccccc2-3)c1 | 15 µM | 0.0068 µM | 3.5 µM | 
O=C(O)c1[nH]c2c(c1-c1cncc(F)c1)CCc1ccccc1-2 | 4.1 µM | 0.062 µM | 2.1 µM | 
O=C(O)c1ccccn1 [2-PICOLINIC ACID] | > 200 µM | 13.7 µM | > 200 µM | 
NCCN[C@H]1CC[C@H](CC(=O)N[C@H]2Cc3cccc(C(=O)O)c3OB2O)CC1 | 38 µM |  | 0.104 µM | 
O=C(O)c1[nH]c2c(c1-c1ccc(Cl)cc1)CCc1ccccc1-2 | 2.1 µM | 0.0031 µM | 1.7 µM | 
O=C(O)c1cc2c([nH]1)-c1ccccc1CC2 | 23 µM | 8.2 µM | 7 µM | 
